Each structure is given as a SMILES string. Where a name gives a salt, the structure may show the parent alone.

Assay [1] has as its system HCT116. Description: efficacy (fitted maximal change in viability relative to DMSO control); higher = less cytotoxic (negative = loss of viability). To be noted: 48 h.
The test system of assay [2] is HCT116. Put plainly: AC50 cell viability (CellTiter-Glo); higher = less potent. To be noted: 48 h. On the technique in general: ATP-based viability assays read luminescence as a measure of living cells.
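Throughout, for AC50 cell viability (CellTiter-Glo): HCT116 colorectal carcinoma cells screened at five concentrations per compound, luminescent viability scaled between DMSO wells and empty wells on each plate, curves fitted per compound.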
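Throughout, for efficacy (fitted maximal change in viability relative to DMSO control): Luminescence-based viability readout, five doses per compound, normalized against on-plate DMSO and empty-well controls, followed by dose-response curve fitting for every drug.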

For `CC(C)(c1ccc(OCC(O)CO)cc1)c1ccc(OCC(O)CCl)cc1` (stereo not drawn) [Ralaniten (EPI-001)], the efficacy with HCT116 [1] was -37%. The compound further registered an AC50 cell viability in the assay with HCT116 [2] of 18.6 µM.
As for `O=C(c1ccc(OCCN2CCCCC2)cc1)c1c(-c2ccc(O)cc2)sc2cc(O)ccc12` [Raloxifene hydrochloride], the efficacy with HCT116 [1] was -94.4%. In addition, the AC50 cell viability in the assay on HCT116 [2] was 20.9 µM.
For `C[N]1N=CC=C1NC2=NC=CC(=N2)C\3=C\C(=O)N(\C=C3)[C@H](CO)C4=CC(=C(Cl)C=C4)F` [Ravoxertinib], in that order: -116% and 14.8 µM.
With `CO[C@@H]1[C@@H](O)[C@H](O)[C@@H](n2c3c(Cl)cccc3c3c4c(c5c6cccc(Cl)c6[nH]c5c32)C(=O)NC4=O)O[C@H]1CO` [Rebeccamycin], in the assay on HCT116 [1], the efficacy is -88.9%. The compound further came in with an AC50 cell viability in the assay on HCT116 [2] of 0.934 µM.
As to `COc1cc(F)c(F)c(Nc2ccc(I)cc2F)c1N[S+](=O)([O-])C1(C[C@H](O)CO)CC1` [Refametinib], the efficacy in the assay on HCT116 [1] is -84.3%. Further, in the assay with HCT116 [2], the AC50 cell viability was found to be 2.63 µM.
For the compound `CNC(=O)c1cc(Oc2ccc(NC(=O)Nc3ccc(Cl)c(C(F)(F)F)c3)c(F)c2)ccn1` [Regorafenib], in the assay with HCT116 [1], the efficacy was -85.3%. This compound registered an AC50 cell viability in the assay with HCT116 [2] of 5.25 µM.
Taken in the same sequence, the figures for `CONC(=O)Nc1ccc(-c2sc3c(c2CN(C)C)c(=O)n(-c2ccc(OC)nn2)c(=O)n3Cc2c(F)cccc2F)cc1` [Relugolix] were -67.3% and 23.5 µM.
As to `COC(=O)C1C2CC3c4[nH]c5cc(OC)ccc5c4CCN3CC2CC(OC(=O)c2cc(OC)c(OC)c(OC)c2)C1OC` (centres undefined) [Reserpine], in the assay with HCT116 [1], the efficacy was -68.3%. For the same compound, the AC50 cell viability in the assay on HCT116 [2] was 20.9 µM.
With `CN(C)Cc1ccc([S+](=O)([O-])n2ccc(/C=C/C(=O)NO)c2)cc1` [Resminostat], in the assay with HCT116 [1], the efficacy is -103%. In the assay with HCT116 [2], this compound yielded an AC50 cell viability of 2.35 µM.
For `Oc1ccc(/C=C/c2cc(O)cc(O)c2)cc1` [Resveratrol], in that order: -49.1% and 20.9 µM.
Consider `C=CCNc1c(O)cc2c(O)c1C[C@@H](C)C[C@H](OC)[C@H](O)[C@@H](C)/C=C(/C)[C@H](OC(N)=O)[C@@H](OC)/C=C\C=C(\C)C(=O)N2` [Retaspimycin Hydrochloride], for which the efficacy with HCT116 [1] is -66.4%. In the assay with HCT116 [2], this compound yielded an AC50 cell viability of 0.372 µM.
`c1nc2c(NC3CCCCC3)nc(Nc3ccc(N4CCOCC4)cc3)nc2[nH]1` [Reversine]: in the assay on HCT116 [1], the efficacy is -114%. For the same compound, in the assay with HCT116 [2], the AC50 cell viability is 6.61 µM.
On to `CO[C@H]1C[C@@H]2CC[C@@H](C)[C@@](O)(O2)C(=O)C(=O)N2CCCC[C@H]2C(=O)O[C@H]([C@H](C)C[C@@H]2CC[C@@H](OP(C)(C)=O)[C@H](OC)C2)CC(=O)[C@H](C)/C=C(\C)[C@@H](O)[C@@H](OC)C(=O)[C@H](C)C[C@H](C)/C=C/C=C/C=C/1C` [Ridaforolimus], for which the efficacy with HCT116 [1] was -48.8%. Further, the AC50 cell viability in the assay with HCT116 [2] stood at 20.9 µM.
Take `CO[C@H]1/C=C/O[C@@]2(C)Oc3c(C)c(O)c4c(c3C2=O)C2=NC3(CCN(CC(C)C)CC3)NC2=C(NC(=O)/C(C)=C/C=C/[C@H](C)[C@H](O)[C@@H](C)[C@@H](O)[C@@H](C)[C@H](OC(C)=O)[C@@H]1C)C4=O` [Rifabutin]: the efficacy in the assay on HCT116 [1] was -60%. The AC50 cell viability in the assay with HCT116 [2] worked out at 23.5 µM.
For `Nc1nc2ccc(OC(F)(F)F)cc2s1` [Riluzole], in that order: -59.1% and 10.5 µM.
Turning to `Cc1c(C(=O)NN2CCCCC2)nn(-c2ccc(Cl)cc2Cl)c1-c1ccc(Cl)cc1` [Rimonabant], the efficacy with HCT116 [1] was -93.4%. The compound also displayed an AC50 cell viability with HCT116 [2] of 23.5 µM.
`CN1CCC(C1CO)C2=C(O)C=C(O)C3=C2O\C(=C/C3=O)C4=CC=CC=C4Cl` (centres undefined) [Riviciclib (P276-00)]: the efficacy with HCT116 [1] was -73.4%. This compound also yielded an AC50 cell viability in the assay with HCT116 [2] of 0.372 µM.
With `C[S+](=O)([O-])c1ccc([C@@H](CC2CCCC2)C(=O)Nc2nccs2)cc1` [Ro-28-1675], the efficacy with HCT116 [1] was -67.1%. In the assay on HCT116 [2], the AC50 cell viability came to 23.5 µM.
In the case of `C=CC(=O)Nc1cccc(Nc2nc(Nc3ccc(N4CCN(C(C)=O)CC4)cc3OC)ncc2C(F)(F)F)c1` [Rociletinib], the efficacy in the assay on HCT116 [1] was -112%. Besides, the AC50 cell viability in the assay with HCT116 [2] turned out to be 8.33 µM.
Take `C[C@@H](OC[C@@]1(c2ccccc2)CC[C@]2(CCC(=O)N2)CN1)c1cc(C(F)(F)F)cc(C(F)(F)F)c1` [Rolapitant]: the efficacy with HCT116 [1] was -111%. The compound also yielded an AC50 cell viability with HCT116 [2] of 13.2 µM.
As for `C/C=C1\NC(=O)[C@H]2CSSCC/C=C\[C@H](CC(=O)N[C@H](C(C)C)C(=O)N2)OC(=O)[C@H](C(C)C)NC1=O` [Romidepsin], the efficacy with HCT116 [1] was -94.8%. The compound also registered an AC50 cell viability in the assay on HCT116 [2] of 0.00742 µM.
`C[C@@H](O)[C@@H](C)Oc1nc(Nc2ccc([S+](=N)([O-])C3CC3)cc2)ncc1C(F)(F)F` (some centres undefined) [Roniciclib]: in the assay on HCT116 [1], the efficacy is -94%. Further, the AC50 cell viability in the assay on HCT116 [2] amounted to 18.6 µM.
As for `[O-]C(=O)C1=C(C(=C(Cl)C(=C1Cl)Cl)Cl)C/2=C/3\C=C(I)/C(=O)/C(=C3OC4=C2C=C(I)C(=C4I)[O-])I` [Rose Bengal disodium], in the assay on HCT116 [1], the efficacy is -47%. In the assay with HCT116 [2], this compound came in with an AC50 cell viability of 16.6 µM.
As to `C=C(C)[C@H]1Cc2c(ccc3c2O[C@@H]2COc4cc(OC)c(OC)cc4[C@@H]2C3=O)O1` [Rotenone], in the assay on HCT116 [1], the efficacy is -64.9%. The compound also displayed an AC50 cell viability in the assay on HCT116 [2] of 0.525 µM.
On to `CN(C)C[C@@H]1CC[N]2C=C(C3=C2C=CC=C3)C/4=C(/C(=O)NC4=O)C5=C[N](CCO1)C6=C5C=CC=C6` [Ruboxistaurin mesylate], for which, in the assay on HCT116 [1], the efficacy was -102%. Further, the AC50 cell viability in the assay on HCT116 [2] worked out at 8.33 µM.
In the case of `CNCc1ccc(-c2[nH]c3cc(F)cc4c3c2CCNC4=O)cc1` [Rucaparib], the efficacy in the assay on HCT116 [1] was -101%. Further, the AC50 cell viability in the assay with HCT116 [2] came out at 18.6 µM.
For the compound `N#CC[C@H](C1CCCC1)n1cc(-c2ncnc3[nH]ccc23)cn1` [Ruxolitinib], the efficacy with HCT116 [1] is -67.4%. This compound also had an AC50 cell viability with HCT116 [2] of 11.8 µM.
For `CNC1CCC(N(Cc2cccc(-c3ccncc3)c2)C(=O)c2sc3ccccc3c2Cl)CC1` (centres undefined) [SAG], in that order: -98.5% and 16.6 µM.
Turning to `CCOc1cc(C(=O)Nc2ccc(Cl)c(-c3nc4ccccc4[nH]3)c2)cc(OCC)c1OCC` [SANT-2], the efficacy in the assay with HCT116 [1] was -37.4%. The compound also registered an AC50 cell viability in the assay on HCT116 [2] of 2.63 µM.
On to `CN1C/C=C/CCOc2cccc(c2)-c2ccnc(n2)Nc2cccc(c2)C1` [SB-1317], for which, in the assay with HCT116 [1], the efficacy was -70.2%. Besides, the AC50 cell viability with HCT116 [2] amounted to 0.059 µM.
Turning to `O=C1\C=C(OC2=C1SC=C2C3=CC=C4OCCOC4=C3)\N5CCOCC5` [SF-2523], in the assay with HCT116 [1], the efficacy is -69.9%. Further, in the assay with HCT116 [2], the AC50 cell viability came to 3.72 µM.
On to `CC(C)N(CCCNC(=O)Nc1ccc(C(C)(C)C)cc1)C[C@H]1O[C@@H](n2cc(Br)c3c(N)ncnc32)[C@H](O)[C@@H]1O` [SGC-0946], for which the efficacy with HCT116 [1] is -95.9%. In addition, the AC50 cell viability with HCT116 [2] was determined as 20.9 µM.
For the compound `CN1CCC(CNc2ccc3ncc(-c4cccc(OC(F)(F)F)c4)n3n2)CC1` [SGI-1776], the efficacy in the assay with HCT116 [1] was -102%. In addition, in the assay on HCT116 [2], the AC50 cell viability was 6.61 µM.
As for `Cc1c[nH]c2nc(Nc3ccc(N4CCN(C)CC4)c(F)c3)nc(-c3cccc(CC#N)c3)c12` [SGI-7079], in the assay on HCT116 [1], the efficacy was -83.9%. The compound further yielded an AC50 cell viability in the assay with HCT116 [2] of 0.525 µM.
Consider `N#C/C(=C(/N)Sc1ccc(N)cc1)c1ccccc1C(F)(F)F` [SL-327], for which, in the assay with HCT116 [1], the efficacy was -80.4%. In the assay on HCT116 [2], this compound gave an AC50 cell viability of 13.2 µM.
As to `CN[C@@H](C)C(=O)N[C@H]1CCCC[C@H]2CC[C@@H](C(=O)N[C@@H](c3ccccc3)c3cn(CCCCc4ccc(CCCCn5cc([C@@H](NC(=O)[C@@H]6CC[C@@H]7CCCC[C@H](NC(=O)[C@H](C)NC)C(=O)N76)c6ccccc6)nn5)cc4)nn3)N2C1=O` [SM-164], the efficacy with HCT116 [1] is -89.2%. In the assay with HCT116 [2], this compound yielded an AC50 cell viability of 23.5 µM.
For `CCC1=C2CN3C(=O)\C4=C(/C=C3/C2=NC5=CC=C(O)C=C15)[C@@](O)(CC)C(=O)OC4` [SN-38], in that order: -79.2% and 0.0661 µM.
With `O=C(Nc1cccc(Cl)c1)Nc1ncc(CCNc2ncnc3ccsc23)s1` [SNS-314], in the assay with HCT116 [1], the efficacy was -91.8%. The same compound gave an AC50 cell viability in the assay with HCT116 [2] of 18.6 µM.
Turning to `C/C(=N\NC(=O)c1cccc([S+](=O)([O-])N2CCOCC2)c1)c1cc(Cl)ccc1O` [SP2509], the efficacy in the assay with HCT116 [1] is -69.5%. The compound also returned an AC50 cell viability in the assay with HCT116 [2] of 1.86 µM.
Turning to `C/C(NNC(=O)c1cccc([S+](=O)([O-])N2CCOCC2)c1)=C1\C=C(Cl)C=CC1=O` [SP-2509], the efficacy in the assay on HCT116 [1] was -72%. In addition, the AC50 cell viability in the assay on HCT116 [2] stood at 2.63 µM.
Taken in the same sequence, the figures for `COC1=CC=CC2=C1C(=NC(=N2)C3=CC=CS3)NN4C(=O)\C=C(C)/C4=O` [SPC-839] were -91.1% and 0.525 µM.
With `OC(c1ccc(-c2ccc(CN3CCN(Cc4ccncc4)CC3)cc2)c(F)c1)(C(F)(F)F)C(F)(F)F` [SR-2211], the efficacy in the assay with HCT116 [1] was -44.3%. In the assay on HCT116 [2], this compound had an AC50 cell viability of 10.5 µM.
As for `Cc1ccc(-c2ncn(-c3ccc(Nc4nccc(-c5cccc(N6CCOCC6)c5)n4)cc3)n2)cn1` [SR-3306], in the assay with HCT116 [1], the efficacy was -85.8%. For the same compound, the AC50 cell viability with HCT116 [2] is 1.48 µM.
As for `CCCCCNC(=O)N1CCC(CN(Cc2ccc(Cl)cc2)Cc2ccc([N+](=O)[O-])s2)C1` (centres undefined) [SR-9011], the efficacy in the assay with HCT116 [1] was -71%. The compound further came in with an AC50 cell viability with HCT116 [2] of 20.9 µM.
Turning to `O=C(Nc1ccccc1-c1cn2c(CN3CCNCC3)csc2n1)c1cnc2ccccc2n1` [SRT-1720], the efficacy with HCT116 [1] was -83.6%. This compound also showed an AC50 cell viability in the assay on HCT116 [2] of 7.42 µM.
With `NC(=O)[C@H]1CCS[C@@H]2C[C@]3(CCCN3C(=O)Cc3ccc(NC(=O)COc4ccc(Cl)cc4Cl)cc3)C(=O)N12` [ST-2825], the efficacy in the assay on HCT116 [1] was -68.6%. This compound also yielded an AC50 cell viability in the assay on HCT116 [2] of 10.5 µM.
Consider `O=C(Nc1nnc(-c2ccco2)o1)c1cc(-c2ccccc2)nc2ccccc12` [STX-0119], for which, in the assay with HCT116 [1], the efficacy was -69.9%. In the assay with HCT116 [2], the AC50 cell viability amounted to 14.8 µM.

For the origin of these results see the supplement of paper PMC10290057.
